This note sets out measurements from patent US11360080B2, “AhR-ROR-γt complex as a biomarker and therapeutic target for autoimmune disease and IL-17A-associated disease” (NATIONAL HEALTH RESEARCH INSTITUTES, priority 2018, dated 2022).

Counter-ions that a name gives are not always drawn.

One assay deals with LLC/luc cells. The assay is described as follows: LLC/luc metastatic lung cancer mouse model. In kind it is in vivo. The settings on record: C1 0.556 nmole/g, C2 0.085 nmole/g i.v. every 3 days for 30 days. An excerpt: (A) The molecular docking of GLK kinase domain structure with C1 (verteporfin). A three-dimensional structure model depicts the binding of C1 to the predicted GLK kinase domain containing phosphorylated Ser-170. The putative binding affinity was −7.4 kcal/mol. (B) The molecular docking of GLK kinase domain structure with C2 (alexidine dihydrochloride). A three-dimensional structure model depicts the binding of C2 to the predicted GLK kinase domain containing phosphorylated Ser-170. The putative binding affinity was −7.0 kcal/mol. (C) Co-immunoprecipitation (co-IP) of Flag-tagged GLK and GFP-fusion GLK using lysates of HEK293T cells co-transfected with Flag-GLK and GFP-GLK plasmids. Cells were treated with C1 (verteporfin) or C2 (alexidine dihydrochloride). (D) Administration of the GLK inhibitor C1 (0.556 nmole/g) or C2 (0.085 nmole/g) every 3 days for 30 days in the LLC/luc metastatic lung cancer mouse model. (E) The luciferase activity in mice treated with C1 (verteporfin), C2 (alexidine dihydrochloride), or vehicle was detected by IVIS Spectrum. (F) Luminescent intensity of photons emitted from LLC/luc cells in the images in (e) was quantified. (G) Representative immunohistochemistry of H&E in lung tissues from mice treated with C1 (verteporfin), C2, or vehicle. Scale bar, 0.5 cm. (H) In situ PLA assays of the interaction between GLK and IQGAP1 (upper panel) or phosphorylated IQGAP1 Ser-480 (lower panel) in lung tissues from mice treated with C1 (verteporfin), C2 (alexidine dihydrochloride), or vehicle in the LLC/luc metastatic lung cancer mouse model. Original magnification, ×40. We studied whether GLK inhibitors also suppress cancer cell migration. […] Moreover, both C1 (verteporfin) and C2 (alexidine dihydrochloride) treatments suppressed tumor growth in the xenograft mouse model using TC-1 lung cancer cells (FIG. 15). To study whether GLK deficiency results in a reduction of lung cancer metastasis, we used a metastatic Lewis lung carcinoma (LLC) mouse model by tail vein injection of luciferase-expressing LLC (LLC/luc) cells. We identified two GLK inhibitors (verteporfin and alexidine dihydrochloride)) using cell-based assays and in vitro kinase assays. […] The dimerization of Flag-tagged GLK protein and GFP-GLK fusion protein was indeed blocked by the C1 (verteporfin) treatment (FIG. 16C). We treated the LLC/luc cells-containing mice with the GLK inhibitor C1 (verteporfin) or C2 (alexidine dihydrochloride) by intravenous injection every 3 days for 30 days (FIG. 16D). The luciferase activity of LLC/luc cells in the mice was detected by In Vivo Imaging System. The excised lungs were weighed and subjected to H&E staining. […] Inhibition of kinase activity of GLK (MAP4K3) or other MAP4Ks was determined by in vitro kinase assays using myelin basic protein (MBP) as a substrate. […]

For assay [1], the system named is mouse lung cancer LL2 cells. Briefly: Transwell migration assay. In kind it is cell-based. Particulars: C1 2 uM or 5 uM; C2 2 uM or uM. The procedure:
(§1) Transwell migration assays of human glioma U87 cells, human pancreatic cancer Panc-1 cells, mouse lung cancer LL2 cells, or human hepatoma Huh-7 cells treated with the GLK inhibitor C1 (verteporfin) (a; 2 uM or 5 uM) or C2 (alexidine dihydrochloride) (b; 2 uM or uM). C1 denotes verteporfin; C2 denotes alexidine dihydrochloride.
(§2) For primary cell migration assays, 2×10^5 cells in […] of IMDM with 10% FBS were seeded into the upper chamber of transwells (8 μm pore size, Corning), and the lower chamber was loaded with […] of IMDM with 20% FBS. For cancer cell migration assays, 5×10^4 cells in 200 μl of RPMI 1640 with 10% FBS were seeded into the upper chamber of transwells (8 μm pore size, Corning), and the lower chamber was loaded with […] of RPMI 1640 with 10% FBS. After incubation at 37° C. for 24 h, cells migrating to the lower chamber were imaged and counted by bright-field microscopy following fixation with absolute methanol and staining with 1% crystal violet solution.

The test system of another assay is human glioma U87 cells. Briefly: Transwell migration assay. In kind it is cell-based. Particulars: C1 2 uM or 5 uM; C2 2 uM or uM. As for the experimental part: as §1, §2
The subject of assay [2] is human hepatoma Huh-7 cells. Briefly: Transwell migration assay. In kind it is cell-based. Particulars: C1 2 uM or 5 uM; C2 2 uM or uM. The procedure: as §1, §2
Assay [3] has as its system human pancreatic cancer Panc-1 cells. The assay is described as follows: Transwell migration assay. In kind it is cell-based. Particulars: C1 2 uM or 5 uM; C2 2 uM or uM. As for the experimental part: as §1, §2

In the case of `CCCCC(CC)CNC(=N)NC(=N)NCCCCCCNC(=N)NC(=N)NCC(CC)CCCC` (stereo not drawn) [C2, alexidine dihydrochloride], in the assay with LLC/luc cells, the “cancer colony in lung (histology)” value is on record as “reduction” and the “luciferase activity of LLC/luc cells in the lung” value is on record as “reduced”. Moreover, in assay [1], the “migration of lung cancer cells” value was “inhibited”. The “migration of glioma cells” value with human glioma U87 cells is given as “inhibited”. Besides, the “migration of hepatoma cells” value in assay [2] is recorded as “inhibited”. For the same compound, the “migration of pancreatic cancer cells” value in assay [3] is “inhibited”.
As to `C=Cc1c(C)c2cc3nc(cc4[nH]c(cc5nc(cc1[nH]2)C(C)=C5CCC(=O)O)c(CCC(=O)OC)c4C)[C@@]1(C)C3=CC=C(C(=O)OC)[C@H]1C(=O)OC` [C1, verteporfin], in the assay on LLC/luc cells, the “cancer colony in lung (histology)” value was “reduction” and the “luciferase activity of LLC/luc cells in the lung” value is “reduced”. Moreover, in assay [1], the “migration of lung cancer cells” value is listed as “inhibited”. Further, the “migration of glioma cells” value in the assay with human glioma U87 cells is listed as “inhibited”. In addition, in assay [2], the “migration of hepatoma cells” value is recorded as “inhibited”. Moreover, the “migration of pancreatic cancer cells” value in assay [3] is “inhibited”.
